Data on 25 molecules can be found in patent US20250270200A1, “CTPS1 INHIBITORS AND USES THEREOF” (Nimbus Clotho, Inc., priority 2022, published 2025).

Values joined by “and” are separate entries in the source; they are usually repeats but may differ in a detail not shown here. Identical values can stand only once. Some results are limits rather than exact numbers.

One test addresses T1, human CTPS1 (Homo sapiens, UniProt P17812).
T1 sequence (P17812 1-591): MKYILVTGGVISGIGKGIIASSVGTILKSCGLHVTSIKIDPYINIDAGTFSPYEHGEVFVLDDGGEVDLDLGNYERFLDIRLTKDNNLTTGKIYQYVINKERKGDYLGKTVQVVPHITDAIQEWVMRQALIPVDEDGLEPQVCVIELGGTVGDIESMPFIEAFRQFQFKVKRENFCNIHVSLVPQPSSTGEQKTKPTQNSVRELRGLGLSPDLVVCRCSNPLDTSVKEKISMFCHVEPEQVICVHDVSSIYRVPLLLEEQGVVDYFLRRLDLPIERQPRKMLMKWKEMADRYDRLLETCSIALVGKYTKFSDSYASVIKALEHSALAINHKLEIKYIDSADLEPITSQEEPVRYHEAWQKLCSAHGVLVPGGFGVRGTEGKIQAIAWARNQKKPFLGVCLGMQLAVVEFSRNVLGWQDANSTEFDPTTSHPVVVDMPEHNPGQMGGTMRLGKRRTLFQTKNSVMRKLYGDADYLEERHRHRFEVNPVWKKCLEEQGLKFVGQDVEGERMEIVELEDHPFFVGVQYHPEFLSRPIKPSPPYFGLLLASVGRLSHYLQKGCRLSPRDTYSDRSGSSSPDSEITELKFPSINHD
The experiment in a line: ADP-Glo assay, human CTPS1 enzyme inhibition. The class given is biochemical. The settings on record: wild-type human CTPS1 25 nM; ATP 120 μM, UTP 160 μM, GTP 60 μM, L-glutamine 100 μM; 25 degrees C.; read-out: ADP-Glo_WT_hCTPS1—25 nM_IC50 (IC50). In short, it runs like this:
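Full-length tagged human CTPS1 (25 nM) pre-incubated 10 min at 25° C with compound, then 10 min with ATP (120 μM) and UTP (160 μM); reaction started with L-glutamine (100 μM) and GTP (60 μM), 1% DMSO, in HEPES pH 7.4, 10 mM Mg2+, 5 mM KCl, 2 mM DTT. Run within linear phase at 25° C; ADP measured by ADP-Glo luminescence.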
For orientation: IC50 means the concentration needed to halve the response being measured. With `O=C(N[C@@H](c1nccc(NS(=O)(=O)C2CC2)c1F)[C@@H]1CCOC1)c1ncc(-c2cnn3ccc(Cl)cc23)s1` (single isomer, unassigned) [II-4], the IC50 lay within 5 to 25 nM.

As for `COC[C@H](NC(=O)c1ncc(-c2cnn3ccc(Cl)cc23)s1)c1nccc(NS(=O)(=O)C2CC2)n1` (single isomer, unassigned) [II-9], the IC50 was in the range of 5 to 25 nM.

The test is the same for the next values; noted with them: wild-type human CTPS1, 25 nM enzyme; ADP-Glo; read-out: ADP-Glo_WT_hCTPS1—25 nM_IC50 (IC50).
Regarding `CCOc1cncc(-c2cnc(C(=O)N[C@@H](c3cc(NS(=O)(=O)C4CC4)ccn3)[C@@H]3CC(=O)N(C)C3)s2)n1` [I-121, N-((R)-(4-(cyclopropanesulfonamido)pyridin-2-yl)((R)-1-methyl-5-oxopyrrolidin-3-yl)methyl)-5-(6-ethoxypyrazin-2-yl)thiazole-2-carboxamide], the IC50 fell in the range of 5 to 25 nM.

On to `CCOc1cncc(-c2cnc(C(=O)N[C@@H](CO[C@H]3CCOC3)c3cc(NS(=O)(=O)C4CC4)ccn3)s2)n1` [I-238, N-((R)-1-(4-(cyclopropanesulfonamido)pyridin-2-yl)-2-(((S)-tetrahydrofuran-3-yl)oxy)ethyl)-5-(6-ethoxypyrazin-2-yl)thiazole-2-carboxamide], for which the IC50 lay in the range of 25 to 50 nM.

For the molecule `CCOc1cncc(-c2cnc(C(=O)N[C@H](CN3C[C@@H]4CC[C@H]3CO4)c3cc(NS(=O)(=O)C4CC4)ccn3)s2)n1` [I-136, N-((R)-2-((1S,4S)-2-oxa-5-azabicyclo[2.2.2]octan-5-yl)-1-(4-(cyclopropanesulfonamido)pyridin-2-yl)ethyl)-5-(6-ethoxypyrazin-2-yl)thiazole-2-carboxamide], the IC50 lay within 5 to 25 nM.

Turning to `CCOc1cncc(-c2cnc(C(=O)N[C@H](CN3CCN(C)C(=O)C3)c3cc(NS(=O)(=O)C4CC4)ccn3)s2)n1` [I-148, (R)-N-(1-(4-(cyclopropanesulfonamido)pyridin-2-yl)-2-(4-methyl-3-oxopiperazin-1-yl)ethyl)-5-(6-ethoxypyrazin-2-yl)thiazole-2-carboxamide], the concentration for half-maximal inhibition (IC50) lay in the range of 5 to 25 nM.

In the case of `O=C(N[C@H](CN1CCOCC1)c1cc(NS(=O)(=O)C2CC2)ccn1)c1ncc(-c2cnn3ccc(Cl)cc23)s1` [I-146, (R)-5-(5-chloropyrazolo[1,5-a]pyridin-3-yl)-N-(1-(4-(cyclopropanesulfonamido)pyridin-2-yl)-2-morpholinoethyl)thiazole-2-carboxamide], the concentration for half-maximal inhibition (IC50) was 5 to 25 nM.

Turning to `O=C(N[C@H](CN1CCCC1)c1cc(NS(=O)(=O)C2CC2)ccn1)c1ncc(-c2cnn3ccc(Cl)cc23)s1` [I-163, (R)-5-(5-chloropyrazolo[1,5-a]pyridin-3-yl)-N-(1-(4-(cyclopropanesulfonamido)pyridin-2-yl)-2-(pyrrolidin-1-yl)ethyl)thiazole-2-carboxamide], the IC50 lay within 25 to 50 nM.

In the case of `CCOc1cncc(-c2cnc(C(=O)N[C@H](c3cc(NS(=O)(=O)C4CC4)ccn3)[C@H]3CN(C)CCO3)s2)n1` [I-97, N-((R)-(4-(cyclopropanesulfonamido)pyridin-2-yl)((R)-4-methylmorpholin-2-yl)methyl)-5-(6-ethoxypyrazin-2-yl)thiazole-2-carboxamide], the half-inhibitory concentration (IC50) is 25 to 50 nM and 5 to 25 nM.

As for `CCOc1cncc(-c2cnc(C(=O)N[C@H](c3cc(NS(=O)(=O)C4CC4)ccn3)C(C)(C)OC)s2)n1` [I-92, (R)-N-(1-(4-(cyclopropanesulfonamido)pyridin-2-yl)-2-methoxy-2-methylpropyl)-5-(6-ethoxypyrazin-2-yl)thiazole-2-carboxamide], the 50% inhibitory concentration (IC50) was in the range of 25 to 50 nM.

On to `CCOc1cncc(-c2cnc(C(=O)N[C@@H](c3cccc(NS(=O)(=O)C(F)F)c3)[C@H](C)CO)s2)n1` [I-245, N-((1R,2S)-1-(3-((difluoromethyl)sulfonamido)phenyl)-3-hydroxy-2-methylpropyl)-5-(6-ethoxypyrazin-2-yl)thiazole-2-carboxamide], for which the IC50 is no more than 5 nM.

Take `CCOc1cncc(-c2cnc(C(=O)N[C@H](c3cccc(NS(=O)(=O)C(F)F)c3)[C@H](C)CO)s2)n1` [I-242, N-((1S,2S)-1-(3-((difluoromethyl)sulfonamido)phenyl)-3-hydroxy-2-methylpropyl)-5-(6-ethoxypyrazin-2-yl)thiazole-2-carboxamide]: the half-maximal inhibitory concentration (IC50) was no more than 5 nM.

With `CCOc1cncc(-c2ccc(C(=O)N[C@@H](COC)c3cc(NS(=O)(=O)C4CC4)ccn3)c(F)c2)n1` [I-282, (R)-N-(1-(4-(cyclopropanesulfonamido)pyridin-2-yl)-2-methoxyethyl)-4-(6-ethoxypyrazin-2-yl)-2-fluorobenzamide], the IC50 lay within 25 to 50 nM.

Consider `CCOc1cncc(-c2cnc(C(=O)N[C@@H](CN3CC[C@@](C)(O)C3)c3cc(NS(=O)(=O)C4CC4)ccn3)s2)n1` [I-129, N-((S)-1-(4-(cyclopropanesulfonamido)pyridin-2-yl)-2-((R)-3-hydroxy-3-methylpyrrolidin-1-yl)ethyl)-5-(6-ethoxypyrazin-2-yl)thiazole-2-carboxamide], for which the IC50 lay within 50 to 100 nM.

As to `CCOc1cncc(-c2cnc(C(=O)N[C@@H](C[C@H]3CCCCN3C(C)C)c3cc(NS(=O)(=O)C4CC4)ccn3)s2)n1` (single isomer, unassigned) [I-28], the concentration for half-maximal inhibition (IC50) was no more than 5 nM.

Turning to `C[C@H](CO)[C@H](NC(=O)c1ncc(-c2cnn3ccc(Cl)cc23)s1)c1cc(NS(=O)(=O)C2CC2)ccn1` [I-233, 5-(5-chloropyrazolo[1,5-a]pyridin-3-yl)-N-((1S,2S)-1-(4-(cyclopropanesulfonamido)pyridin-2-yl)-3-hydroxy-2-methylpropyl)thiazole-2-carboxamide], the IC50 was in the range of 5 to 25 nM.

Take `CCOc1cncc(-c2cnc(C(=O)N[C@@H](C[C@@H]3COCCN3C)c3cccc(NS(=O)(=O)C(F)F)c3)s2)n1` [I-191, N-((S)-1-(3-((difluoromethyl)sulfonamido)phenyl)-2-((R)-4-methylmorpholin-3-yl)ethyl)-5-(6-ethoxypyrazin-2-yl)thiazole-2-carboxamide]: the IC50 lay within 25 to 50 nM.

Turning to `CCOc1cncc(-c2cnc(C(=O)N[C@@H](CO[C@@H]3CCOC3)c3cc(NS(=O)(=O)C4CC4)ccn3)s2)n1` [I-239, N-((R)-1-(4-(cyclopropanesulfonamido)pyridin-2-yl)-2-(((R)-tetrahydrofuran-3-yl)oxy)ethyl)-5-(6-ethoxypyrazin-2-yl)thiazole-2-carboxamide], the IC50 was in the range of 5 to 25 nM.

Consider `CCOc1cncc(-c2ccc(C(=O)N[C@@H](c3cc(NS(=O)(=O)C4CC4)ccn3)[C@H]3CCCO3)nc2)n1` [I-70, N-((S)-(4-(cyclopropanesulfonamido)pyridin-2-yl)((R)-tetrahydrofuran-2-yl)methyl)-5-(6-ethoxypyrazin-2-yl)picolinamide], for which the 50% inhibitory concentration (IC50) fell in the range of 25 to 50 nM.

Regarding `O=C(NCc1cc(NS(=O)(=O)C2CC2)ccn1)c1ccc(-c2cnn3ccc(Cl)cc23)cc1F` [I-181, 4-(5-chloropyrazolo[1,5-a]pyridin-3-yl)-N-((4-(cyclopropanesulfonamido)pyridin-2-yl)methyl)-2-fluorobenzamide], the 50% inhibitory concentration (IC50) lay in the range of 25 to 50 nM.

With `CCOc1cncc(-c2cnc(C(=O)N[C@@H](c3cc(NS(=O)(=O)C4CC4)ccn3)[C@@H](C)CN3CCCCC3)s2)n1` (stereo in doubt) [I-52, N-((1R,2S)-1-(4-(cyclopropanesulfonamido)pyridin-2-yl)-2-methyl-3-(piperidin-1-yl)propyl)-5-(6-ethoxypyrazin-2-yl)thiazole-2-carboxamide], the half-inhibitory concentration (IC50) lay in the range of 50 to 100 nM.

On to `CCOc1cncc(-c2cnc(C(=O)NCc3ccnc(NS(=O)(=O)C4CC4)n3)s2)n1` [I-178, N-((2-(cyclopropanesulfonamido)pyrimidin-4-yl)methyl)-5-(6-ethoxypyrazin-2-yl)thiazole-2-carboxamide], for which the IC50 lay in the range of 25 to 50 nM.

Regarding `C[C@@H](CN1CCCCC1)[C@@H](NC(=O)c1ncc(-c2cnn3ccc(Cl)cc23)s1)c1cc(NS(=O)(=O)C2CC2)ccn1` [I-55, 5-(5-chloropyrazolo[1,5-a]pyridin-3-yl)-N-((1R,2S)-1-(4-(cyclopropanesulfonamido)pyridin-2-yl)-2-methyl-3-(piperidin-1-yl)propyl)thiazole-2-carboxamide], the IC50 fell in the range of 50 to 100 nM.

With `C[C@H](O)[C@@H](NC(=O)c1ncc(-c2cnn3ccc(Cl)cc23)s1)c1cc(NS(=O)(=O)C2CC2)ccn1` [I-273, 5-(5-chloropyrazolo[1,5-a]pyridin-3-yl)-N-((1S,2S)-1-(4-(cyclopropanesulfonamido)pyridin-2-yl)-2-hydroxypropyl)thiazole-2-carboxamide], the concentration for half-maximal inhibition (IC50) lay in the range of 5 to 25 nM.

For the molecule `CCOc1cncc(-c2cnc(C(=O)N[C@@H](CN3C[C@H]4CC[C@@H]3CO4)c3cc(NS(=O)(=O)C4CC4)ccn3)s2)n1` [I-123, N-((S)-2-((1R,4R)-2-oxa-5-azabicyclo[2.2.2]octan-5-yl)-1-(4-(cyclopropanesulfonamido)pyridin-2-yl)ethyl)-5-(6-ethoxypyrazin-2-yl)thiazole-2-carboxamide], the IC50 fell in the range of 50 to 100 nM.
